Assay [1] concerns the target IRAK4 (Homo sapiens (Human), UniProt Q9NWZ3). As to the kind of experiment: IRAK4 enzymatic assay. It counts as biochemical. As to conditions: human recombinant His-TEV-IRAK4, ATP 2 μM, STK1-biotin peptide, FlashPlate. Here is the method: IRAK4 is a human purified recombinant enzyme (His-TEV-IRAK1 (194-712)
IRAK4 hydrolyses ATP, autophosphorylates and phosphorylates a Serine/Threonine generic peptidic substrate (STK: 61ST1BLC from CisBio International based in Bagnols/Cèze FR).
Measurement of IRAK-4 inhibition is performed in streptavidin coated 384 well FlashPlate (PerkinElmer #SMP410A). His-TEV-IRAK4 (20 ng/well), ATP (2 μM, [^33P]ATP 0.25 μCi/well), STK1-biotin peptide (300 nM) and compounds in DMSO (range of concentrations from 20 μM to 1 nM) or controls (2% DMSO) are incubated for 3 hours at 30° C. in assay buffer: Hepes pH7.0 50 mM, Fatty acid-free BSA 0.1%, Dithiothreitol DTT 2 mM, MgCl2 10 mM, EGTA 0.5 mM, Tween-20 0.01%, MnCl2 5 mM. Kinase reaction is stopped by addition of EDTA. Supernatant is discarded, plates are washed three times with 150 mM NaCl and radioactivity is then measured in a Microbeta Trilux reader.

Assay [2] addresses IRAK1 (Homo sapiens (Human), UniProt P51617). As to the kind of experiment: IRAK1 enzymatic assay. As to conditions: human recombinant His-TEV-IRAK1, ATP 1 μM, FlashPlate. It counts as biochemical. Here is the method:
IRAK1 is a human purified recombinant enzyme (His-TEV-IRAK1 (194-712)) In this assay, IRAK-1 hydrolyses ATP and autophosphorylates.
Measurement of IRAK-1 inhibition is performed in streptavidin coated 384 well FlashPlate (PerkinElmer #SMP410A).
His-TEV-IRAK-1 (15 ng/well), ATP (1 μM, [^33P]ATP 0.25 μCi/well) and compounds in DMSO (range of concentrations from 20 μM to 1 nM) or controls (2% DMSO) are incubated for 3 hours at 30° C. in assay buffer: Hepes pH7.0 50 mM, Fatty acid-free BSA 0.1%, Dithiothreitol DTT 2 mM, MgCl2 10 mM, EGTA 0.5 mM, Triton-X-100 0.01%. Kinase reaction is stopped by addition of EDTA. Supernatant is discarded, plates are washed three times with 150 mM NaCl and radioactivity is then measured in a Microbeta Trilux reader.

This note sets out measurements from US9567320B2, “Pyridazinone-amides derivatives” (Merck Patent GmbH, priority 2013, dated 2017).

Some results are limits rather than exact numbers.

IRAK4, sequence (Q9NWZ3 whole entry): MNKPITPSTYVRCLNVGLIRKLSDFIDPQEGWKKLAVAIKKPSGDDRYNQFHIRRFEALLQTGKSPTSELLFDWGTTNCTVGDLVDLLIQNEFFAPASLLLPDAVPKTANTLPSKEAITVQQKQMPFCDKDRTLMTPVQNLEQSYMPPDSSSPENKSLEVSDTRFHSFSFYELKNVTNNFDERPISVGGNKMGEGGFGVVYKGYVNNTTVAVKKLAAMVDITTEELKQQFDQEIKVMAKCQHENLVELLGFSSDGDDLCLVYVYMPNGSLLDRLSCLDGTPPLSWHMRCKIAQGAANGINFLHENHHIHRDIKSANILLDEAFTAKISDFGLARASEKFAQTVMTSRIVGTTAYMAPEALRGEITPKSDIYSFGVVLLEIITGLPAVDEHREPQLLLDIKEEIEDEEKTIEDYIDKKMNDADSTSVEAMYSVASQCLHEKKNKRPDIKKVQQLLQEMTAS
IRAK1, sequence (P51617 194-712): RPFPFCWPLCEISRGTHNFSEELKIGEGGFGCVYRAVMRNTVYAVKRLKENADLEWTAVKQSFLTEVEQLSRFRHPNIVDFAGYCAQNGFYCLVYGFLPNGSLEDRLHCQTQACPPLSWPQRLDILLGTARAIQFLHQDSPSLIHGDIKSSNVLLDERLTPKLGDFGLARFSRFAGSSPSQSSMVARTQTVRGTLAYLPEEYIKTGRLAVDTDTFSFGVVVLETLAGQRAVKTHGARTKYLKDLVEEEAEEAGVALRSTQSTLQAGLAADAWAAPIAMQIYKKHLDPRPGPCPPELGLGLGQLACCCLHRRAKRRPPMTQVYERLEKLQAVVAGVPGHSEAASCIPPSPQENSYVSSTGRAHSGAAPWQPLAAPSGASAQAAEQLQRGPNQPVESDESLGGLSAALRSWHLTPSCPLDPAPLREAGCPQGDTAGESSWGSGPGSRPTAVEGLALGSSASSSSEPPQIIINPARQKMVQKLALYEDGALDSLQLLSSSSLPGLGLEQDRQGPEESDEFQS

The term IC50 denotes the midpoint of a concentration-inhibition curve. Take `Cc1cc(-c2ccc(=O)n(Cc3cccc(C(=O)Nc4nc5ccccc5[nH]4)c3)n2)cnn1` [Example 13, N-(1H-benzo[d]imidazol-2-yl)-3-((3-(6-methylpyridazin-4-yl)-6-oxopyridazin-1(6H)-yl)methyl)benzamide]: the IC50 in assay [1] and in assay [2] was 100 to 1000 nM each time. In the case of `CN(C)Cc1ccc(-c2ccc(=O)n(Cc3cccc(C(=O)Nc4nc5ccccc5[nH]4)c3)n2)cn1` [Example 11, N-(1H-benzo[d]imidazol-2-yl)-3-((3-(6-((dimethylamino)methyl)pyridin-3-yl)-6-oxopyridazin-1(6H)-yl)methyl)benzamide], the IC50 in assay [1] and in assay [2] was 1000 to 5000 nM throughout. For the molecule `Cc1ccncc1-c1ccc(=O)n(Cc2cccc(C(=O)Nc3nc4ccccc4[nH]3)c2)n1` [Example 12, N-(1H-benzo[d]imidazol-2-yl)-3-((3-(4-methylpyridin-3-yl)-6-oxopyridazin-1(6H)-yl)methyl)benzamide], the IC50 in assay [1] was in the range of 100 to 1000 nM. As to `O=C(Nc1nc2ccccc2[nH]1)c1cccc(Cn2nc(-c3cccnc3)ccc2=O)c1` [Example 2, N-(1H-Benzoimidazol-2-yl)-3-(6-oxo-3-pyridin-3-yl-6H-pyridazin-1-ylmethyl)-benzamide], the IC50 in assay [1] is 100 to 1000 nM; in assay [2], under 100 nM.

Regarding `COc1ccc2[nH]c(NC(=O)c3cccc(Cn4nc(-c5cccnc5)ccc4=O)c3)nc2c1` [Example 16, N-(5-methoxy-1H-benzo[d]imidazol-2-yl)-3-((6-oxo-3-(pyridin-3-yl)pyridazin-1(6H)-yl)methyl)benzamide], the IC50 in assay [1] was 100 to 1000 nM; in assay [2], under 100 nM.

In the case of `Nc1ccc(-c2ccc(=O)n(Cc3cccc(C(=O)Nc4nc5ccccc5[nH]4)c3)n2)cn1` [Example 9, 3-[3-(6-Amino-pyridin-3-yl)-6-oxo-6H-pyridazin-1-ylmethyl]-N-(1H-benzoimidazol-2-yl)-benzamide], the half-maximal inhibitory concentration (IC50) in assay [1] and in assay [2] was under 100 nM each time.

`O=C(Nc1nc2cc(CO)ccc2[nH]1)c1cccc(Cn2nc(-c3cccnc3)ccc2=O)c1` [Example 5, N-(5-Hydroxymethyl-1H-benzoimidazol-2-yl)-3-(6-oxo-3-pyridin-3-yl-6H-pyridazin-1-ylmethyl)-benzamide]: the IC50 in assay [1] and in assay [2] was under 100 nM each time. With `COc1cc2nc(NC(=O)c3cccc(Cn4nc(-c5cccnc5)ccc4=O)c3)[nH]c2cc1OC` [Example 15, N-(5,6-dimethoxy-1H-benzo[d]imidazol-2-yl)-3-((6-oxo-3-(pyridin-3-yl)pyridazin-1(6H)-yl)methyl)benzamide], the IC50 is under 100 nM in assay [1] and 100 to 1000 nM in assay [2]. Consider `O=C(Nc1nc2ccccc2[nH]1)c1cccc(Cn2nc(-c3cncc(CO)c3)ccc2=O)c1` [Example 17, N-(1H-Benzoimidazol-2-yl)-3-[3-(5-hydroxymethyl-pyridin-3-yl)-6-oxo-6H-pyridazin-1-ylmethyl]-benzamide], for which the IC50 in assay [1] and in assay [2] was under 100 nM each time.

For `O=C(Nc1nc2ccccc2[nH]1)c1cccc(Cn2nc(-c3ccc(CO)nc3)ccc2=O)c1` [Example 7, N-(1H-Benzoimidazol-2-yl)-3-[3-(6-hydroxymethyl-pyridin-3-yl)-6-oxo-6H-pyridazin-1-ylmethyl]-benzamide], the IC50 in assay [1] was under 100 nM. The same measure, in the same setting: the same measure for `COC(=O)c1ccc2[nH]c(NC(=O)c3cccc(Cn4nc(-c5cccnc5)ccc4=O)c3)nc2c1` [Example 4, 2-[3-(6-Oxo-3-pyridin-3-yl-6H-pyridazin-1-ylmethyl)-benzoylamino]-1H-benzoimidazole-5-carboxylic acid methyl ester]: 1000 to 5000 nM.

For the molecule `O=C(Nc1nc2ccccc2[nH]1)c1cccc(Cn2nc(-c3cncnc3)ccc2=O)c1` [Example 8, N-(1H-Benzoimidazol-2-yl)-3-(6-oxo-3-pyrimidin-5-yl-6H-pyridazin-1-ylmethyl)-benzamide], the 50% inhibitory concentration (IC50) in assay [1] and in assay [2] was 100 to 1000 nM each time.

Regarding `Cc1cc(=O)n(Cc2cccc(C(=O)Nc3nc4ccccc4[nH]3)c2)nc1-c1cccnc1` [Example 10], the IC50 in assay [2] lay within 100 to 1000 nM.

Turning to `CN(C)Cc1cncc(-c2ccc(=O)n(Cc3cccc(C(=O)Nc4nc5ccccc5[nH]4)c3)n2)c1` [Example 14, N-(1H-benzo[d]imidazol-2-yl)-3-((3-(5-((dimethylamino)methyl)pyridin-3-yl)-6-oxopyridazin-1(6H)-yl)methyl)benzamide], the IC50 in assay [1] fell in the range of 1000 to 5000 nM. For the molecule `CN(C)C(=O)Cc1ccc2[nH]c(NC(=O)c3cccc(Cn4nc(-c5cccnc5)ccc4=O)c3)nc2c1` [Example 6, N-(5-Dimethylcarbamoylmethyl-1H-benzoimidazol-2-yl)-3-(6-oxo-3-pyridin-3-yl-6H-pyridazin-1-ylmethyl)-benzamide], the IC50 in assay [1] and in assay [2] was under 100 nM each time. In the case of `Cn1c(NC(=O)c2cccc(Cn3nc(-c4cccnc4)ccc3=O)c2)nc2ccccc21` [Example 3, N-(1-Methyl-1H-benzoimidazol-2-yl)-3-(6-oxo-3-pyridin-3-yl-6H-pyridazin-1-ylmethyl)-benzamide], the IC50 in assay [1] lay in the range of 1000 to 5000 nM. Turning to `CC(C)(C)C(=O)Oc1ccc2[nH]c(NC(=O)c3cccc(Cn4nc(-c5cccnc5)ccc4=O)c3)nc2c1` [Example 1, 2,2-Dimethyl-propionic acid 2-[3-(6-oxo-3-pyridin-3-yl-6H-pyridazin-1-ylmethyl)-benzoylamino]-1H-benzoimidazol-5-yl ester], the IC50 was under 100 nM in assay [1] and 100 to 1000 nM in assay [2].
